Measurements from patent US6730699B2, “Water soluble paclitaxel derivatives” (priority 2001, dated 2004).
pIC50: −log10 of the molar value. Like-named read-outs stand apart in the source and are kept apart here.

Columns and labels:
[1] = system: rat mammary tumor cell line 13762F; experiment: Plating efficiency assay, 13762F cells; assay type: cell-based; settings: 144 h, read-out: IC50 (50% inhibition of colony formation), 6 days of continuous exposure, approximate
in vivo = settings: female, C3Hf/Kam, mouse, iv
[2] = Acute toxicity in 13762F tumor-bearing Fischer rats
[3] = system: SKOV3ipl human ovarian cancer cell line; experiment: Human ovarian cancer i.p. in nude mice
[4] = 47 mg eq./kg + 14 Gy 24 h after PG-TXL
[5] = 80 mg eq./kg + 14 Gy 24 h after PG-TXL
[6] = 120 mg eq/kg + 14 Gy 24 h after PG-TXL
[7] = 120 mg eq/kg + 14 Gy 24 h prior to PG-TXL

## CC(=O)O[C@H]1C(=O)[C@@]2(C)[C@H]([C@H](OC(=O)c3ccccc3)[C@]3(O)C[C@H](OC(=O)[C@H](O)[C@@H](NC(=O)c4ccccc4)c4ccccc4)C(C)=C1C3(C)C)[C@]1(OC(C)=O)CO[C@@H]1C[C@@H]2O [Paclitaxel, paclitaxel]
[1]
  pIC50: ~8.70
In vivo
  MTD at 2 wk: 80 mg/kg
[2]; 20 mg/kg single i.v.
  # of Toxic Death: 0/5
  Body Weight Loss in %: 17.0%
  Time at Nadir: 5 days
[2]; 40 mg/kg single i.v.
  # of Toxic Death: 0/3
  Body Weight Loss in %: 17.9%
  Time at Nadir: 6 days
  Time of Full Recovery: 16 days
[2]; 60 mg/kg single i.v.
  # of Toxic Death: 1/4
  Body Weight Loss in %: 16.7%
  Time at Nadir: 6 days
  Time of Full Recovery: 15 days
[2]; female, Fischer 344, rat, in vivo
  MTD at 2 wk: < 20 mg/kg

## Poly-Glutamic Acid-Paclitaxel [PG-TXL]
Ovarian OCa-l carcinoma; [4]
  Absolute growth delay: 18.2 days
  Days for tumor to grow from 8-14 mm (means ± SD): 35.3 ± 4.7 days
  Normalized growth delay (means ± SD): 15.5 ± 4.7 days
Ovarian OCa-l carcinoma; 47 mg eq./kg, no radiation
  Absolute growth delay: 2.7 days
  Days for tumor to grow from 8-14 mm (means ± SD): 19.8 ± 0.98 days
Ovarian OCa-l carcinoma; [5]
  Absolute growth delay: 45.6 days
  Days for tumor to grow from 8-14 mm (means ± SD): 62 ± 4.6 days
  Normalized growth delay (means ± SD): 37.5 ± 4.6 days
Ovarian OCa-l carcinoma; 80 mg eq./kg, no radiation
  Absolute growth delay: 8.1 days
  Days for tumor to grow from 8-14 mm (means ± SD): 25.3 ± 3.9 days
Ovarian OCa-l carcinoma; [6]
  Absolute growth delay: 98.4 days
  Normalized growth delay (means ± SD): 85.9 ± 3.0 days
Ovarian OCa-l carcinoma; 120 mg eq/kg + 14 Gy 24 h after PG-TXL, regrown tumors only
  Days for tumor to grow from 8-14 mm (means ± SD): 115 ± 3 days
Ovarian OCa-l carcinoma; [7]
  Absolute growth delay: 100.5 days
  Normalized growth delay (means ± SD): 88 ± 1.2 days
Ovarian OCa-l carcinoma; 120 mg eq/kg + 14 Gy 24 h prior to PG-TXL, regrown tumors only
  Days for tumor to grow from 8-14 mm (means ± SD): 117 ± 1.2 days
Ovarian OCa-l carcinoma; 120 mg eq/kg, no radiation
  Absolute growth delay: 12.5 days
  Days for tumor to grow from 8-14 mm (means ± SD): 29.7 ± 3.2 days
[3]; 120 mg/kg, three injections
  Ascites (incidence/mice with tumor): 3/7
  Mean vol of ascites (s.d.): 2.7 ± 1.4 mL
  Tumor take (incidence of tumor/mice injected): 7/8
[3]; 160 mg/kg i.v., nude mice
  mice killed by a single injection: 5 of the 10
[3]; 160 mg/kg, single dose
  Ascites (incidence/mice with tumor): 0/3
[2]; 40 mg/kg single i.v.
  Body Weight Loss in %: 11.1%
  Time at Nadir: 6 days
  Time of Full Recovery: 11 days
[2]; 60 mg/kg single i.v.
  Body Weight Loss in %: 15.7%
  Time at Nadir: 7 days
  Time of Full Recovery: 14 days
